# In patent US20250122539A1, “LARGE SCALE PRODUCTION OF DIVARIN, DIVARINIC ACID AND OTHER ALKYL RESORCINOLS BY FERMENTATION” (priority 2021, published 2025):
# B1: CsAAE1: Cannabis sativa acyl activating enzyme 1 (SEQ ID NO: 4), codon-optimized for S. cerevisiae, on plasmid pLOA-059 (protein, listed as Cannabis sativa)
# chain: MGKNYKSLDSVVASDFIALGITSEVAETLHGRLAEIVCNYGAATPQTWINIANHILSPDLPFSLHQMLFYGCYKDFGPAPPAWIPDPEKVKSTNLGALLEKRGKEFLGVKYKDPISSFSHFQEFSVRNPEVYWRTVLMDEMKISFSKDPECILRRDDINNPGGSEWLPGGYLNSAKNCLNVNSNKKLNDTMIVWRDEGNDDLPLNKLTLDQLRKRVWLVGYALEEMGLEKGCAIAIDMPMHVDAVVIYLAIVLAGYVVVSIADSFSAPEISTRLRLSKAKAIFTQDHIIRGKKRIPLYSRVVEAKSPMAIVIPCSGSNIGAELRDGDISWDYFLERAKEFKNCEFTAREQPVDAYTNILFSSGTTGEPKAIPWTQATPLKAAADGWSHLDIRKGDVIVWPTNLGWMMGPWLVYASLLNGASIALYNGSPLVSGFAKFVQDAKVTMLGVVPSIVRSWKSTNCVSGYDWSTIRCFSSSGEASNVDEYLWLMGRANYKPVIEMCGGTEIGGAFSAGSFLQAQSLSSFSSQCMGCTLYILDKNGYPMPKNKPGIGELALGPVMFGASKTLLNGNHHDVYFKGMPTLNGEVLRRHGDIFELTSNGYYHAHGRADDTMNIGGIKISSIEIERVCNEVDDRVFETTAIGVPPLGGGPEQLVIFFVLKDSNDTTIDLNQLRLSFNLGLQKKLNPLFKVTRVVPLSSLPRTATNKIMRRVLRQQFSHFE
# B2: AtAAE7: acyl activating enzyme 7 from Arabidopsis thaliana (Uniprot Q8VZF1), C-terminal peroxisomal targeting sequence removed, SEQ ID NO: 9 (protein, listed as Arabidopsis thaliana)
# chain: MAATKWRDIDDLPKIPANYTALTPLWFLDRAAVVHPTRKSVIHGSREYTWRQTYDRCRRLASALADRSIGPGSTVAIIAPNIPAMYEAHFGVPMCGAVLNCVNIRLNAPTVAFLLSHSQSSVIMVDQEFFTLAEDSLRLMEEKAGSSFKRPLLIVIGDHTCAPESLNRALSKGAIEYEDFLATGDPNYPWQPPADEWQSIALGYTSGTTASPKGVVLHHRGAYIMALSNPLIWGMQDGAVYLWTLPMFHCNGWCFPWSLAVLSGTSICLRQVTAKEVYSMIAKYKVTHFCAAPVVLNAIVNAPKEDTILPLPHTVHVMTAGAAPPPSVLFSMNQKGFRVAHTYGLSETYGPSTVCAWKPEWDSLPPETQAKLNARQGVRYTGMEQLDVIDTQTGKPVPADGKTAGEIVFRGNMVMKGYLKNPEANKETFAGGWFHSGDIAVKHPDNYIEIKDRSKDVIISGGENISSVEVENVVYHHPAVLEASVVARPDERWQESPCAFVTLKSDYEKHDQNKLAQDIMKFCREKLPAYWVPKSVVFGPLPKTATGKIQKHILRTKAKEMGPVPR
# Key:
# S. cerevisiae = test: Toxicity of organic phase (overlay/underlay) compounds to growth of the host strain; details: for toxicity to growth: compound as organic phase
# Description: In-situ liquid-liquid extraction (biphasic fermentation) is a strategy that can be employed in accordance with the present invention for physical separation of product from microorganisms via partitioning into the water immiscible organic liquid phase from an aqueous culture phase. The organic liquid phase or organic phase is present as either an overlay if its density is less than that of the aqueous phase, or an underlay if its density is greater than that of the aqueous phase. Certain properties of the overlay or underlay are considered for production of olivetolic acid/olivetol and other resorcinols such as of formulas IA and IB: (1) non-toxic or low toxicity for growth of the host strain, and/or (2) a favorable partitioning coefficient of the product in the organic phase vs. the aqueous phase, and/or (3) preferably a lower partition coefficient for fed hexanoic acid (for olivetolic acid/olivetol) or other fatty acid such as RCO2H (for other resorcinols) in the organic phase vs. the aqueous phase. Additional properties of the organic phase enhance its suitability for downstream conversion, e.g. and without limitation, to cannabigerol and other cannabinoid compounds, including suitability as a solvent or co-solvent during downstream prenylation or other reactions, and boiling point if downstream separation by distillation is employed.
# butyric acid = test: Two plasmid screening system for relative AAE activity, butyric acid feeding; assay type: cell-based, Saccharomyces cerevisiae; details: for Divarin / Divarinic acid: average production, LSC3-297/pLOA-049 plus AAE plasmid, Delft medium pH 5.5 with 150 mM MES, 9.08 mM butyric acid, 48 hours
# Description: (§1) In order to perform in vivo screening in Saccharomyces cerevisiae for acyl activating enzyme (AAE) variants with enhanced activity and/or expression, a two plasmid screening system was employed to generate an artificial bottleneck in AAE activity. This bottleneck was generated by natural copy number variation of the two plasmids, with a multi-copy 2 micron episomal plasmid, pLOA-049, harboring an olivetol synthase homologue from C. sativa (CsTKS) fused with a T2A self-cleaving peptide (Kearsey et al., FEBS J. 287:1511-1524, 2020) to a gene encoding olivetol acid cyclase from C. sativa (CsOAC), and a lower copy centromeric plasmid with an autonomous replicating sequence (CEN/ARS) harboring different acyl activating enzymes/acyl-CoA synthetases from different organisms. Markers employed on the 2 micron plasmid were orotidine-5′-phosphate decarboxylase from S. cerevisiae (URA3) and on the CEN/ARS plasmid, the multifunctional histidine biosynthesis gene HIS4 from S. cerevisiae. The cassette architecture in the plasmids was based on integrated cassettes in production strain LSC3-2, with a pGAL1-10 bidirectional promoter driving expression of CsTKS and CsOAC from pGAL1 with a S. cerevisiae CYC1 terminator, and insulated downstream of pGAL10 by a S. cerevisiae GRE3 terminator. Likewise on the CEN/ARS plasmid, a bidirectional pGAL1-10 promoter drives expression of CsAAE1 from pGAL10 with a S. cerevisiae GRE3 terminator, and is insulated downstream of pGAL1 by a S. cerevisiae CYC1 terminator.
# (§2) To screen activity of AAE variants, first a CEN/ARS containing plasmid expressing AAEs co-transformed with the 2 micron plasmid expressing CsTKS translationally fused to CsOAC via the T2A self-cleaving peptide into strain LSC3-297 using the transformation method described by Gietz and Schiestl (Nat. Protocols 2:31-34, 2007). Double plasmid transformants were selected on YNB agar with 2% (w/v) glucose and CSM minus histidine and minus uracil (CSM-His-Ura, Sunrise Science Products) and grown in a 30° C. incubator for approximately 48 hours or at room temperature for approximately 72 hours. Individual colonies were picked into wells of 96 deepwell plates containing 0.3 mL per well of Delft medium with 2% (w/v) glucose and 0.75 g/L CSM-His-Ura. Delft medium base contains (per liter solution) 7.5 g ammonium sulfate, 14.4 g potassium phosphate monobasic (added from a 1 M stock solution adjusted to pH 6.5 with sodium hydroxide), 0.5 g magnesium sulfate heptahydrate, 3.6 mL of a trace metal solution (consisting of 130 g/L citric acid monohydrate, 0.574 g/L copper (II) sulfate pentahydrate, 8.07 g/L iron (III) chloride hexahydrate, 0.5 g/L boric acid, 0.333 g/L manganese (II) chloride, 0.2 g/L sodium molybdate, and 4.67 g/L zinc sulfate heptahydrate), and 1.0 ml of a vitamin solution (0.008 g/L biotin, 1.6 g/L calcium pantothenate, 0.008 g/L folic acid, 8 g/L myo-inositol, 1.6 g/L nicotinic acid, 0.8 g/L p-aminobenzoic acid, 1.6 g/L pyridoxal hydrochloride, 0.8 g/L riboflavin, 1.6 g/L thiamine hydrochloride, adjusted to pH […] with sodium hydroxide). Plates were grown for 16-24 hours at 30° C. in a plate shaker incubator maintained at 80% relative humidity and 900 rpm shaking (3 mm diameter throw). Ten microliters of preculture was then used to inoculate wells of 96 deepwell plates containing 0.3 mL per well of Delft medium with 2% (w/v) glucose, 0.75 g/L CSM-His-Ura, either 9.08 mM butyric acid or 3.44 mM hexanoic acid, and for divarin/divarinic acid, additionally 150 mM 2-(N-morpholino) ethanesulfonic acid (MES) at pH 5.5 and with the additional modification of the 1 M potassium phosphate monobasic stock in the Delft medium base also adjusted to pH 5.5 (for olivetol/olivetolic acid production from hexanoic acid, no MES was added and potassium phosphate monobasic solution used in the Delft medium base was at pH 6.5). […]
# hexanoic acid = test: Two plasmid screening system for relative AAE activity, hexanoic acid feeding; assay type: cell-based, Saccharomyces cerevisiae; details: for Olivetol / Olivetolic acid: average production, LSC3-297/pLOA-049 plus AAE plasmid, Delft medium pH 6.5, 3.44 mM hexanoic acid, 48 hours
# Description: as §1, §2
Molecule,toxicity to growth (S. cerevisiae; under the test conditions),other results
"2,2,4-trimethyl-1,3-pentanediol monoisobutyrate [Texanol]",inhibitory to growth,–
CCCCCCCCCCO [Decanol],toxic to growth,–
CCCCOC(=O)CCCCCCCCC(=O)OCCCC [Dibutyl sebacate],completely non-inhibitory to growth,–
"CCCCCCCCCCCCCC(=O)OC(C)C [IPM, isopropyl myristate]",non-toxic,–
CCCCCCCC(=O)OC(C)C [Isopropyl octanoate],moderately inhibitory but allowed for some growth,–
CCCCCCCC(=O)OCC(COC(=O)CCCCCCC)OC(=O)CCCCCCC [Tricaprylin],"fairly toxic, however allowed some growth of strains",–
CCCCCCCCCCCC(=O)OCCCC [butyl laurate],non-toxic,–
CC(C)(C)OC(=O)CC(=O)OC(C)(C)C [di-tert-butyl malonate],–,"toxicity toward growth of mixtures (S. cerevisiae; 1-10% (v/v), particularly 1-2.5% (v/v), in IPM and isopar M): much lower toxicity; toxicity to growth (S. cerevisiae; with galactose addition): appearing toxic or to induce substantial lag; toxicity to growth (S. cerevisiae; with glucose addition): supported growth of all strains"
CCCCOC(=O)CCCCC(=O)OCCCC [dibutyl adipate],no apparent toxicity,–
CCOC(=O)C(CC)(CC)C(=O)OCC [diethyl diethylmalonate],–,toxicity to growth (S. cerevisiae; with galactose addition): substantial lag; toxicity to growth (S. cerevisiae; with glucose addition): modest growth by most strains
CCOC(=O)CCCCCCCCC(=O)OCC [diethyl sebacate],moderately growth inhibitory,toxicity to growth (S. cerevisiae; with galactose addition): substantial lag; toxicity to growth (S. cerevisiae; with glucose addition): modest growth by most strains
CC(C)OC(=O)CCCCC(=O)OC(C)C [diisopropyl adipate],Growth was observed,–
CCCCCCCCCCCC [dodecane],Lack of toxicity,–
CCCCCCCCCC(=O)OCC [ethyl decanoate],increasingly non-toxic,–
CCCCCCCCCCCC(=O)OCC [ethyl laurate],non-toxic,–
CCCCCCCCCCCCCC(=O)OCC [ethyl myristate],non-toxic,–
CCCCCCCCCCCCCCCC [hexadecane],Lack of toxicity,–
CCCCCCOC(=O)CCCCC [hexyl hexanoate],moderately non-toxic,–
CCCCCCCCCC(=O)OC [methyl decanoate],moderately inhibitory to growth but still allowed for growth,–
CCCCCCCCCCCCCC(=O)OC [methyl myristate],non-toxic,–
CCCCCCCCOC(C)=O [octyl acetate],toxic,–
CCCCCCCC/C=C\CCCCCCCCO [oleyl alcohol],supported robust growth,–
CCCCCCCCCCCCCC [tetradecane],Lack of toxicity,–
B1,–,Divarin (butyric acid): 1.58 mg/L; Divarinic acid (butyric acid): 1.51 mg/L; Olivetol (hexanoic acid): 2.61 mg/L; Olivetolic acid (hexanoic acid): 2.99 mg/L; activity as a hexanoyl-CoA synthetase for olivetol and olivetolic acid production (hexanoic acid; out of the tested AAE sequences): highest activity
B2,–,Divarin (butyric acid): 7.18 mg/L; Divarinic acid (butyric acid): 5.63 mg/L; activity as butyryl-CoA synthetases for divarin and divarinic acid production (butyric acid; over CsAAE1): several-fold activity improvements; Olivetol (hexanoic acid): 0.74 mg/L; Olivetolic acid (hexanoic acid): 1.60 mg/L
